Measured values as given in BigSolDB 2.1.

## CC(=O)C1=C(O)C=C2Oc3c(C(C)=O)c(O)c(C)c(O)c3C2(C)C1=O (stereo in doubt)
In acetone, 278.15 K
  solubility (mole fraction): 0.000422
In acetone, 283.15 K
  solubility (mole fraction): 0.000454
In acetone, 288.15 K
  solubility (mole fraction): 0.000541
In acetone, 293.15 K
  solubility (mole fraction): 0.00061
In acetone, 298.15 K
  solubility (mole fraction): 0.000747
In acetone, 303.15 K
  solubility (mole fraction): 0.000879
In acetone, 308.15 K
  solubility (mole fraction): 0.000978
In acetone, 313.15 K
  solubility (mole fraction): 0.00121
In acetone, 318.15 K
  solubility (mole fraction): 0.00165
In acetone, 323.15 K
  solubility (mole fraction): 0.00197
In ethanol, 288.15 K
  solubility (mole fraction): 3.09e-05
In ethanol, 293.15 K
  solubility (mole fraction): 4.23e-05
In ethanol, 298.15 K
  solubility (mole fraction): 5.3e-05
In ethanol, 303.15 K
  solubility (mole fraction): 6.8e-05
In ethanol, 308.15 K
  solubility (mole fraction): 9.3e-05
In ethanol, 313.15 K
  solubility (mole fraction): 0.000114
In ethanol, 318.15 K
  solubility (mole fraction): 0.000121
In ethanol, 323.15 K
  solubility (mole fraction): 0.000148
In ethanol, 328.15 K
  solubility (mole fraction): 0.000203
In ethanol, 333.15 K
  solubility (mole fraction): 0.000234
In ethanol, 338.15 K
  solubility (mole fraction): 0.000274
In ethyl acetate, 288.15 K
  solubility (mole fraction): 0.00109
In ethyl acetate, 293.15 K
  solubility (mole fraction): 0.00125
In ethyl acetate, 298.15 K
  solubility (mole fraction): 0.00158
In ethyl acetate, 303.15 K
  solubility (mole fraction): 0.00189
In ethyl acetate, 308.15 K
  solubility (mole fraction): 0.00216
In ethyl acetate, 313.15 K
  solubility (mole fraction): 0.00275
In ethyl acetate, 318.15 K
  solubility (mole fraction): 0.00314
In ethyl acetate, 323.15 K
  solubility (mole fraction): 0.0038
In ethyl acetate, 328.15 K
  solubility (mole fraction): 0.00444
In ethyl acetate, 333.15 K
  solubility (mole fraction): 0.00518
In ethyl acetate, 338.15 K
  solubility (mole fraction): 0.00689
In n-hexane, 288.15 K
  solubility (mole fraction): 5.97e-05
In n-hexane, 293.15 K
  solubility (mole fraction): 6.97e-05
In n-hexane, 298.15 K
  solubility (mole fraction): 8.06e-05
In n-hexane, 303.15 K
  solubility (mole fraction): 9.43e-05
In n-hexane, 308.15 K
  solubility (mole fraction): 0.000106
In n-hexane, 313.15 K
  solubility (mole fraction): 0.000128
In n-hexane, 318.15 K
  solubility (mole fraction): 0.000149
In n-hexane, 323.15 K
  solubility (mole fraction): 0.000176
In n-hexane, 328.15 K
  solubility (mole fraction): 0.000224
In n-hexane, 333.15 K
  solubility (mole fraction): 0.000256
In n-hexane, 338.15 K
  solubility (mole fraction): 0.00029
In water, 288.15 K
  solubility (mole fraction): 2.81e-07
In water, 293.15 K
  solubility (mole fraction): 2.99e-07
In water, 298.15 K
  solubility (mole fraction): 3.31e-07
In water, 303.15 K
  solubility (mole fraction): 3.52e-07
In water, 308.15 K
  solubility (mole fraction): 3.75e-07
In water, 313.15 K
  solubility (mole fraction): 4.06e-07
In water, 318.15 K
  solubility (mole fraction): 4.46e-07
In water, 323.15 K
  solubility (mole fraction): 4.77e-07
In water, 328.15 K
  solubility (mole fraction): 5.3e-07
In water, 333.15 K
  solubility (mole fraction): 5.94e-07
In water, 338.15 K
  solubility (mole fraction): 6.61e-07
